# Experimental data from publication PMC4676410 (Journal of medicinal chemistry, 2015).
# Read-outs that look alike come from different tables or passages of the source.
# Tests used:
# YU2 core gp120 [1] = assay: Competitive SPR: VRC-PG04 binding to immobilized YU2 core gp120; set-up: species or system HIV-1; details: at higher ratios of NBD-11021 versus VRC-PG04
# HIV-1IIIB = assay: CD4-dependent CXCR4-tropic HIV-1 cell-cell transmission assay; format: cell-based; details: Ghost X4/R5 and H9/HIV-1IIIB
# [2] = tested on: laboratory-adapted HIV-1 strains; assay: microbe, parasite or virus in culture; format: cell-based
# [3] = tested on: HIV-1HXB2 (CXCR4-tropic) pseudovirus; assay: Single-cycle infection assay in U87-CD4-CXCR4 cells; details: U87-CD4-CXCR4, HIV-1HXB2
# HIV-2 isolates = assay: Antiviral activity against HIV-2; format: cell-based; details: Table S2
# [4] = tested on: HIV-1ADA (CCR5-tropic) pseudovirus; assay: Single-cycle infection assay in U87-CD4-CCR5 cells
# SIVmac186 = assay: Antiviral activity against SIV; format: cell-based; details: Table S2
# SHIVSF162P3 = assay: Antiviral activity against SHIV; format: cell-based; details: Table S2
# A-MLV = assay: microbe, parasite or virus in culture; format: cell-based; details: Murine leukemia virus
# YU2 core gp120 [5] = assay: SPR: binding of YU2 core gp120 to captured mAb 17b in presence of compounds; set-up: species or system HIV-1; details: sCD4 15-fold excess, compounds 50-fold excess
# HIV-1ADA = assay: CD4-dependent CCR5-tropic HIV-1 cell-cell transmission assay; format: cell-based; details: Ghost X4/R5 and MOLT-4/HIV-1ADA
# [6] = tested on: lab-adapted and primary HIV-1 isolates; assay: microbe, parasite or virus in culture; format: cell-based; details: Human immunodeficiency virus 1, PBMC, laboratory strain BaL, subtype B, R5
# VSV-G = assay: microbe, parasite or virus in culture; format: cell-based; details: Human immunodeficiency virus 1
# [7] = tested on: fusion between MAGI-CCR5 and HL 2/3 cells; assay: HIV-1 cell-cell fusion assay; format: cell-based; details: read-out: IC50, cell-cell fusion assay
# YU2 core gp120 [8] = assay: Competitive SPR: sCD4 binding to immobilized YU2 core gp120; set-up: species or system HIV-1; details: NBD-11021 12.5-200 μM
# [9] = target: HIV-1 reverse transcriptase (RT) (Human immunodeficiency virus type 1 group M subtype B, UniProt P12497); assay: HIV-1 reverse transcriptase
smiles,measurement,setting,value
"Cc1nc(C(NC(=O)c2ccc(-c3ccc(Cl)cc3)[nH]2)C2CCCCN2)sc1CO (mixture of isomers) [NBD-11021, 5-(4-Chlorophenyl)-N-((5-(hydroxymethyl)-4-methylthiazol-2-yl)-(piperidin-2-yl)methyl)-1H-pyrrole-2-carboxamide]",competition with VRC-PG04 for binding to gp120 (in words),YU2 core gp120 [1],effectively competed with VRC-PG04
same,inhibition of CXCR4-tropic cell-cell transmission (in words),HIV-1IIIB,inhibited cell–cell transmission effectively
same,IC50,"[2]; Human immunodeficiency virus 1, MT2, MT-2, HIV-1IIIB",1500 ± 60 nM
same,IC50,"[2]; Human immunodeficiency virus 1, MT2, laboratory strain RF, subtype B, MT-2, R5X4",7300 ± 600 nM
same,IC50,[3],2400 ± 100 nM
same,activity against HIV-2 isolates (in words),HIV-2 isolates,poor activity
same,IC50,"[4]; Pseudovirus, U87/CD4/CCR5, U87-CD4-CCR5, HIV-1ADA",1700 ± 200 nM
same,IC50,"[4]; U87/CD4/CCR5, read-out: IC50 against CCR5- and CXCR4-tropic HIV-1",1700 to 2400 nM
same,activity against SIVmac186 (in words),SIVmac186,poor activity
same,activity against SHIVSF162P3 (in words),SHIVSF162P3,poor activity
same,IC50,A-MLV,7500 ± 200 nM
same,enhancement of mAb 17b binding to YU2 core gp120 (in words),YU2 core gp120 [5],no enhancement
same,inhibition of CCR5-tropic cell-cell transmission (in words),HIV-1ADA,showed inhibition
same,IC50,[6],3700 ± 400 nM
same,IC50,VSV-G,10000 ± 500 nM
same,IC50,[7],9800 nM
same,competition with sCD4 for binding to gp120 (in words),YU2 core gp120 [8],competes with CD4 to bind to gp120 in a dose-dependent manner
Cc1cn([C@H]2C[C@H](N=[N+]=[N-])[C@@H](CO[P@](=O)(O)O[P@](=O)(O)OP(=O)(O)O)O2)c(=O)[nH]c1=O [AZT-TP],IC50,[9],8 nM
COc1ccnc2[nH]cc(C(=O)C(=O)N3CCN(C(=O)c4ccccc4)C[C@H]3C)c12 [BMS-378806],IC50,[7]; MAGI-CCR5 and HL 2/3 cells,14 nM
